{"source": "patent US10987669B2", "about": "“Apparatus and method for detection of tumour cells and circulating tumour cells” (MEDCOM ADVANCE, S.A., priority 2016, dated 2021)", "type_in_all_cases": "cell-based", "key": {"[1]": {"test_system": "MCF7 breast cancer cell line (compared with MCF12A healthy breast cells)", "experiment": "2-NBD glucose uptake measurements on fixed cells", "settings": "for Fluorescence intensity of 2-NBDG, cancer versus healthy cells: 300 μM 2-NBDG", "description": "MCF12A, a breast mammary epithelia-derived cell line, and MCF7 breast cancer cell line (American Type Culture Collection, ATCC, Manassas, Va., USA), were routinely cultured in DMEM/F-12 supplemented with 20 ng/mL of human epidermal growth factor, 100 ng/mL of cholera toxin, 0.01 mg/mL of bovine insulin, 500 ng/mL of hydrocortisone 95% and 5% donor horse serum; and in EMEM (Eagle's Minimum Essential Medium) supplemented with 10% fetal bovine serum, 0.01 mg/mL human recombinant insulin, 2 mM of L-glutamine and 1% Penicillin-Streptomycin, respectively. Each cell line was cultured in a humidified atmosphere with 5% CO2 at 37° C.\nTo study the general uptake and retention of glucose, cells were exposed to 300 μM of 2-(N-(7-Nitrobenz-2-oxa-1,3-diazol-4-yl)Amino)-2-Deoxyglucose (2-NBDG) for different incubation times: 1, 5, 10, 20, 30, and 60 min. To achieve higher 2-NBDG accumulation inside MCF7 cells, cells were exposed to different conditions based on the concentrations of dissolved oxygen. The effects on oxygen availability were evaluated by exposing cells to the hyperoxic or hypoxic environment, created by bubbling 2-NBDG incubation media for 20 min with oxygen or nitrogen, respectively. Afterwards, cells were fixed with 4% paraformaldehyde solution in 1×PBS, for 20 min, and then washed 6 times with 1×PBS and mounted onto glass slides with Fluoromount G (Southern Biotech), for the fluorescence measurements.\n(§1) Fixed cells were imaged with fluorescence microscopy and then analysed using Image J. Epi-fluorescence microscope NIKON TE2000E equipped with the 465/495 excitation and 515/555 emission filters was used to collect the fluorescence of 2-NBDG. […]\n2-(N-(7-Nitrobenz-2-oxa-1,3-diazol-4-yl)Amino)-2-Deoxyglucose (2-NBDG) is chosen as the model metabolism indicator. […] The concentration of 2-NBDG was determined based on the gain of clear visibility on the fluorescence images. The fluorescence intensity was quantified using Image J. The same thresholds were set for fluorescence images of both healthy and cancer cells to remove the background noises. […]"}, "[2]": {"test_system": "co-cultured MCF7 (Qdot685 labelled) cells with MCF12A (Qdot625 labelled) cells", "experiment": "2-NBD glucose uptake measurements in co-cultured cells", "settings": "300 μM 2-NBDG, 5 min, hyperoxic environment, co-culture", "description": "To successfully identify different cell types in a cell mixture, previously functionalized Qdot 625 and 685 were used as the intracellular trackers for MCF12A and MCF7 cells, respectively. 50,000 cells/wells of each type were cultured separately onto glass cover slips inside 12-well plates and left growing for 48 h, at 5% CO2 and 37° C. Then, cells were washed with pre-warmed 1×PBS for 1 minute and 100 nM of each Qdot@amino-PEG was added in the cell growth media, and waited for 1 hour. After the incubation, cells were washed 3 times with 1×PBS. MCF7 (Qdot685 labelled) cells were detached from the surface using Trypsin-EDTA solution 0.25% and re-cultured onto MCF12A (Qdot625 labelled) cells. […]\nCo-cultured MCF7 (Qdot685 labelled) cells with MCF12A (Qdot625 labelled) cells were exposed to 300 μM of 2-NBDG for 5 min, under the hyperoxic environment, determined by the previous optimizations. Afterwards, cells were fixed with 4% paraformaldehyde solution in 1×PBS for 20 min, and then washed 6 times with 1×PBS and mounted onto glass slides with Fluoromount G (Southern Biotech), for the fluorescence measurements.\nas §1"}, "MCF7 and MCF12A cells": {"test_system": "MCF7 and MCF12A cells", "experiment": "On-line detection of cancer and healthy cells in the detection microfluidic chip", "settings": "150 μM 2-NBDG, 5 min, hyperoxic 1×PBS, cells in flow at 0.025 mL/h", "description": "A detection chip based on the hydrodynamic focusing technique was constructed to continuously detect hypermetabolic cancer cells by measuring single cell fluorescence. It consisted of three inlets, a main single channel and an outlet (FIG. 8a). All inlet channels converged in a single one of 75 μm-width, which was widen to 600 μm (detection region). The conformation of the inlet channels ensures the focus of cells into a line, which can be further detected one by one. Depth of the whole microfluidic chip was 75 μm.\nFor the on-line detection of cancer and healthy cells, MCF12A and MCF7 cells were separately detached from culture flasks, centrifuged at 1,300 rpm for 5 min and resuspended in 1 mL of 1×PBS under hyperoxic conditions. As mentioned above, hyperoxia was achieved by bubbling oxygen into the PBS solution for 20 min. 2-NBDG was then added to achieve 150 μM as the final concentration and incubated with suspended cells for 5 min, as the optimal condition. Afterwards, incubation was stopped by adding 2-fold volume of pre-cooled 1×PBS and non-uptaken 2-NBDG was removed by centrifuging cells at 1,300 rpm for 5 min and suspending in 1×PBS. […] An epi-fluorescence microscope was used to collect the fluorescence of the 2-NBDG uptaken by single cells (both, MCF12A and MCF7). Data was analyzed with Image J software."}}, "data": [{"smiles": "O=[N+]([O-])c1ccc(N[C@H]2C(O)O[C@H](CO)[C@@H](O)[C@@H]2O)c2nonc12", "note": "(some centres unmarked) [2-NBDG, 2-(N-(7-Nitrobenz-2-oxa-1,3-diazol-4-yl)Amino)-2-Deoxyglucose]", "values": [{"measurement": "Fluorescence intensity of 2-NBDG, cancer versus healthy cells", "setting": "[1]; 5 min incubation, MCF7 vs MCF12A cultured separately", "result": "higher fluorescence compared to healthy cells"}, {"measurement": "Fluorescence intensity of 2-NBDG, cancer versus healthy cells", "setting": "[1]; incubation longer than 5 min (up to 60 min), MCF7 vs MCF12A", "result": "fluorescence from healthy cells overtakes the cancer cells"}, {"measurement": "Fluorescence intensity gap between cancer and healthy cells", "setting": "[1]; 5 min incubation, hyperoxia compared to control and hypoxia environments", "result": "further enlarged"}, {"measurement": "Fluorescence intensity of 2-NBDG, cancer cell versus surrounded healthy cells", "setting": "[2]", "result": "greater fluorescence intensity"}, {"measurement": "Single cell fluorescence intensity of 2-NBDG, cancer versus healthy cells", "setting": "MCF7 and MCF12A cells", "result": "higher fluorescence intensity compared to the healthy ones"}]}]}
